“And” between values parts separate entries of the source, which are not always exact repeats. Identical values can stand only once.
Conditions: Fluid (supercritical or subcritical phases); for viscosity: vibrating wire; for mass density: Buoyancy - hydrostatic balance with magnetic suspension - one sinker

CC [ethane]
Conditions | mass density | viscosity
307.15 K, 29063 kPa | – | 0.07227 mPa·s
307.15 K, 29978 kPa | 436.186 kg/m3 and 436.185 kg/m3 | 0.07317 mPa·s and 0.07325 mPa·s
307.15 K, 29979 kPa | 436.187 kg/m3 | 0.07323 mPa·s
307.15 K, 29980 kPa | 436.189 kg/m3 | 0.07314 mPa·s and 0.07319 mPa·s
423.15 K, 95.75 kPa | 0.82018 kg/m3 | 0.01277 mPa·s
423.15 K, 95.83 kPa | 0.82091 kg/m3 | 0.01276 mPa·s
423.15 K, 117.47 kPa | 1.0068 kg/m3 | 0.01277 mPa·s
423.15 K, 117.64 kPa | 1.0082 kg/m3 | 0.01277 mPa·s
423.15 K, 117.73 kPa | 1.009 kg/m3 | 0.01277 mPa·s
423.15 K, 226.59 kPa | 1.947 kg/m3 | 0.0128 mPa·s
423.15 K, 226.76 kPa | 1.9485 kg/m3 | 0.0128 mPa·s
423.15 K, 459.37 kPa | 3.9693 kg/m3 | 0.01284 mPa·s
423.15 K, 459.46 kPa | 3.9701 kg/m3 | 0.01284 mPa·s
423.15 K, 691.62 kPa | 6.0097 kg/m3 | 0.0129 mPa·s
423.15 K, 691.95 kPa | 6.0126 kg/m3 | 0.01289 mPa·s
423.15 K, 915.95 kPa | 8.0024 kg/m3 | 0.01294 mPa·s
423.15 K, 916.03 kPa | 8.0031 kg/m3 | 0.01294 mPa·s
423.15 K, 1136.5 kPa | 9.9828 kg/m3 | 0.01298 mPa·s
423.15 K, 1136.7 kPa | 9.9843 kg/m3 | 0.01298 mPa·s
423.15 K, 1357.6 kPa | 11.99 kg/m3 | 0.01303 mPa·s
423.15 K, 1357.9 kPa | 11.993 kg/m3 | 0.01303 mPa·s
423.15 K, 1576.5 kPa | 13.999 kg/m3 | 0.01306 mPa·s and 0.01307 mPa·s
423.15 K, 1794.4 kPa | 16.02 kg/m3 | 0.01312 mPa·s
423.15 K, 1795 kPa | 16.025 kg/m3 | 0.01311 mPa·s
423.15 K, 2007.1 kPa | 18.014 kg/m3 | 0.01317 mPa·s
423.15 K, 2007.2 kPa | 18.015 kg/m3 | 0.01317 mPa·s
423.15 K, 2209.1 kPa | 19.928 kg/m3 | 0.01322 mPa·s
423.15 K, 2209.2 kPa | 19.929 kg/m3 | 0.01322 mPa·s
423.15 K, 3243 kPa | 30.033 kg/m3 | 0.01352 mPa·s
423.15 K, 3244.5 kPa | 30.048 kg/m3 | 0.01351 mPa·s
423.15 K, 4164.4 kPa | 39.494 kg/m3 | 0.01382 mPa·s
423.15 K, 4164.5 kPa | 39.495 kg/m3 | 0.01382 mPa·s
423.15 K, 4551.5 kPa | 43.602 kg/m3 | 0.01395 mPa·s
423.15 K, 4555.3 kPa | 43.642 kg/m3 | 0.01396 mPa·s
423.15 K, 5910.6 kPa | 58.665 kg/m3 | 0.01454 mPa·s
423.15 K, 5914.3 kPa | 58.707 kg/m3 | 0.01455 mPa·s
423.15 K, 6746.2 kPa | 68.424 kg/m3 | 0.01497 mPa·s
423.15 K, 6746.9 kPa | 68.432 kg/m3 | 0.01497 mPa·s
423.15 K, 7528 kPa | 77.889 kg/m3 | 0.01542 mPa·s
423.15 K, 7530.1 kPa | 77.915 kg/m3 | 0.01542 mPa·s
423.15 K, 8298.5 kPa | 87.517 kg/m3 | 0.0159 mPa·s
423.15 K, 8300.8 kPa | 87.546 kg/m3 | 0.0159 mPa·s
423.15 K, 9235.9 kPa | 99.586 kg/m3 | 0.01656 mPa·s
423.15 K, 9238.5 kPa | 99.621 kg/m3 | 0.01656 mPa·s
423.15 K, 10732 kPa | 119.465 kg/m3 | 0.01774 mPa·s
423.15 K, 10733 kPa | 119.476 kg/m3 | 0.01775 mPa·s
423.15 K, 12215 kPa | 139.509 kg/m3 | 0.0191 mPa·s
423.15 K, 12218 kPa | 139.549 kg/m3 | 0.01909 mPa·s
423.15 K, 13727 kPa | 159.706 kg/m3 | 0.02062 mPa·s
423.15 K, 13728 kPa | 159.722 kg/m3 | 0.02062 mPa·s
423.15 K, 15325 kPa | 180.142 kg/m3 | 0.02234 mPa·s
423.15 K, 15327 kPa | 180.168 kg/m3 | 0.02234 mPa·s
423.15 K, 16990 kPa | 199.904 kg/m3 | 0.0242 mPa·s
423.15 K, 16991 kPa | 199.911 kg/m3 | 0.02421 mPa·s
423.15 K, 16992 kPa | 199.925 kg/m3 | 0.0242 mPa·s
423.15 K, 18872 kPa | 220.003 kg/m3 | 0.02632 mPa·s
423.15 K, 18874 kPa | 220.02 kg/m3 | 0.02632 mPa·s
423.15 K, 18878 kPa | 220.065 kg/m3 | 0.02633 mPa·s
423.15 K, 21034 kPa | 240.207 kg/m3 and 240.204 kg/m3 | 0.0287 mPa·s
423.15 K, 23414 kPa | 259.265 kg/m3 | 0.03119 mPa·s
423.15 K, 23415 kPa | 259.275 kg/m3 | 0.0312 mPa·s
423.15 K, 26527 kPa | 280.132 kg/m3 | 0.03425 mPa·s
423.15 K, 26529 kPa | 280.144 kg/m3 | 0.03424 mPa·s
423.15 K, 30162 kPa | 300.101 kg/m3 | 0.03757 mPa·s
423.15 K, 30174 kPa | 300.162 kg/m3 | 0.03757 mPa·s
423.15 K, 30181 kPa | 300.195 kg/m3 | 0.03756 mPa·s
423.15 K, 30183 kPa | 300.204 kg/m3 | 0.03758 mPa·s

From the NIST ThermoML archive (doi:10.1021/je101178u)
